Source: EP4725957A1, “GROUP OF CYCLIC ALKALINE LIPOPEPTIDE COMPOUNDS, AND PREPARATION METHOD THEREFOR AND USE THEREOF” (Institute of Medicinal Biotechnology, Chinese Academy of …, priority 2023, dated 2024)
≈ marks a conversion by molar mass, not a printed value. Bridge positions count the residues as written; N and C are the ends. Square brackets hold non-standard residues; d marks the D form. Peptide text beside a SMILES is read from it. * marks the point of attachment. Dab(CH2SO3H) = N[C@@H](CCNCS(=O)(=O)O)C(=O)O; Heptanoyl(6-Me) = CC(C)CCCCC(=O)*; dOrn = NCCC[C@@H](N)C(=O)O; X1 = CC[C@H](C)CCCCC(=O)*; Heptanoyl = CCCCCCC(=O)*; Orn = NCCC[C@H](N)C(=O)O; Dab = NCC[C@H](N)C(=O)O; Dap = NC[C@H](N)C(=O)O

What was measured:
Type in all cases: cell-based
[1] = Nephrotoxicity assay: in vitro cytotoxicity of HK-2 cells by CCK-8 assay; conditions: human, HK-2 cells (human renal), 72 h incubation with drug-containing medium
Protocol: In vitro cytotoxicity detection of HK-2 cells was performed by the CCK-8 assay.
The culture medium for human renal HK-2 cells was a complete RPMI-1640 medium (Invitrogen) supplemented with 10% fetal bovine serum (FBS, Gibco). The cryopreservation solution was composed of 90% FBS and 10% dimethyl sulfoxide (DMSO), and the cells were preserved long-term in liquid nitrogen. Cells were cultured in a sterile incubator with a humidified atmosphere containing 5% CO2 at 37°C. When the cell density reached 70%-80%, cell digestion and subculture were conducted. The cyclic lipopeptide compounds prepared in Examples 1-120 were weighed and dissolved in sterile water to prepare a mother solution with a concentration of 1 mg/mL. Drug-containing culture media were then formulated, with the final concentrations set as 500, 250, 200, 100, 50, 25, and 12.5 µg/mL, respectively. Cells were adjusted to a density of 5 × 10^4 cells/mL and seeded into 96-well plates, with 100 µL of cell suspension added to each well. After stable incubation for 24 h, the original medium was replaced with the prepared drug-containing medium, and the plates were incubated in the incubator for an additional 72 h. The medium was gently aspirated, and 100 µL of blank medium containing 10% CCK-8 was added to each well. After incubation in the incubator for 3 h, the optical density (OD) values at 450 nm were measured using a BIOTEK microplate reader. The experiment was repeated three times. For each replicate, polymyxin B was set as the positive drug, and a drug-free blank group was established as the control. The cell viability (%) was calculated by the formula: Cell viability (%) = [(OD of drug-treated group - OD of zero-setting) / (OD of drug-free group - OD of zero-setting)] × 100%. The half-maximal inhibitory concentration (IC50) values were calculated through logarithmic regression analysis.
The cells used for the nephrotoxicity assay were obtained from the ATCC ( American Type Culture Collection). The Cell Counting Kit-8 (CCK-8) used in the assay was supplied by Beyotime Biotechnology Co., Ltd.

[2] = test system: Acinetobacter baumannii NCTC 13304 (OXA-27); conditions: NCTC 13304
Protocol: (§1) The minimal inhibitory concentration (MIC) was determined by the broth microdilution method according to the recommended procedures of the Clinical and Laboratory Standards Institute (CLSI).
(§2) An appropriate amount of the cyclic lipopeptide compounds prepared in Examples 1-120 and the reference standards were weighed and dissolved in sterile pure water. An appropriate volume of the mother solution was subjected to ten-fold dilution with sterile Mueller-Hinton (MH) broth to a concentration of 0.256 mg/mL. Half of the drug solution was aliquoted into 96-well reagent reservoirs, while the other half was subjected to two-fold serial dilution with sterile MH broth before being transferred into deep-well reagent reservoirs. The above steps were repeated, so that the drug concentrations in the reagent reservoirs were adjusted to 128, 64, 32, 16, 8, 4, 2, 1, 0.5, 0.25, 0.125 and 0.06 mg/L in sequence, and all solutions were prepared and used immediately. Several colonies were picked from agar plates cultured for 18-24 h and directly suspended in sterile normal saline, and the concentration of the bacterial suspension was adjusted to 0.5 McFarland units. The calibrated bacterial suspension was diluted with MH broth to a concentration of (4-8) × 10^5 colony-forming units per milliliter (CFU/mL) and prepared and used immediately. A volume of 100 µL of the aforementioned compounds of the present disclosure (e.g., the compounds prepared in the examples) and reference solutions at different concentrations was separately pipetted into wells 1 to 12 of sterile 96-well polystyrene plates, and an additional 100 µL of the aforementioned inoculum was added to each well. The final concentrations of the samples in the wells were adjusted to 64, 32, 16, 8, 4, 2, 1, 0.5, 0.25, 0.125, 0.06 and 0.03 mg/L, respectively, and the final concentration of the inoculum in each well was (2-4) × 10^5 CFU/mL. Additional growth control wells were set up, each containing 100 µL of the inoculum and 100 µL of sterile MH broth. The test substances and inocula in all wells were mixed thoroughly and then sealed. The inoculated 96-well plates were incubated in an incubator at 35-37°C for 16-20 h.
(§3) The strains used for the antibacterial activity assay were obtained from the American Type Culture Collection (ATCC) and clinical isolates.
(§4) The strains employed for the antibacterial activity assay included Escherichia coli ATCC BAA-2523, ATCC BAA-2340 (KPC), Klebsiella pneumoniae KPN+19-15, ATCC BAA-1705 (KPC), Pseudomonas aeruginosa PAE19-3, ATCC 27853, Acinetobacter baumannii ABA19-1, and NCTC 13304 (OXA-27).

[3] = test system: Escherichia coli ATCC BAA-2523; conditions: ATCC BAA-2523
Protocol: as §1, §2, §3, §4

[4] = test system: Klebsiella pneumoniae KPN+19-15; conditions: KPN+19-15
Protocol: as §1, §2, §3, §4

[5] = test system: Escherichia coli ATCC BAA-2340 (KPC); conditions: ATCC BAA-2340
Protocol: as §1, §2, §3, §4

[6] = test system: Pseudomonas aeruginosa ATCC 27853; conditions: ATCC 27853
Protocol: as §1, §2, §3, §4

[7] = test system: Pseudomonas aeruginosa PAE19-3; conditions: PAE19-3
Protocol: as §1, §2, §3, §4

[8] = test system: Klebsiella pneumoniae ATCC BAA-1705 (KPC); conditions: ATCC BAA-1705
Protocol: as §1, §2, §3, §4

[9] = test system: Acinetobacter baumannii ABA19-1; conditions: ABA19-1
Protocol: as §1, §2, §3, §4

SMILES | IC50 at 72 h [1] [µg/mL] | MIC [2] [µg/mL] | MIC [3] [µg/mL] | MIC [4] [µg/mL] | MIC [5] [µg/mL] | MIC [6] [µg/mL] | MIC [7] [µg/mL] | MIC [8] [µg/mL] | MIC [9] [µg/mL]
CCCCCCC(=O)N[C@@H](CCN)C(=O)N[C@H](C(=O)N[C@H](CO)C(=O)N[C@H]1CCNC(=O)[C@H]([C@@H](C)O)NC(=O)[C@H](CCN)NC(=O)[C@H](CCCN)NC(=O)[C@H]([C@@H](C)O)NC(=O)[C@@H](Cc2ccccc2)NC(=O)[C@H](CCN)NC1=O)[C@@H](C)O [Compound 79, Heptanoyl-Dab-Thr-D-Ser-ring(4-10)[Dab-Dab-D-Phe-Thr-Orn-Dab-Thr]] (Heptanoyl-[Dab]T[dS][Dab][Dab][dF]T[Orn][Dab]T; lactam 4-C) | > 500 | 0.03 (≈ 0.0258 µM) | 0.03 (≈ 0.0258 µM) | 0.5 (≈ 0.429 µM) | 0.03 (≈ 0.0258 µM) | >64 | 64 (≈ 55 µM) | 0.25 (≈ 0.215 µM) | 0.06 (≈ 0.0515 µM)
CC[C@H](C)CCCCC(=O)N[C@@H](CCN)C(=O)N[C@H](C(=O)N[C@@H](CN)C(=O)N[C@H]1CCNC(=O)[C@H]([C@@H](C)O)NC(=O)[C@H](CCN)NC(=O)[C@H](CCN)NC(=O)[C@H]([C@@H](C)O)NC(=O)[C@@H](Cc2ccccc2)NC(=O)[C@H](CCN)NC1=O)[C@@H](C)O [Compound 6, (S)-6-methyloctanoyl-Dab-Thr-Dap-ring(4-10)[Dab-Dab-D-Phe-Thr-Dab-Dab-Thr]] (X1-[Dab]T[Dap][Dab][Dab][dF]T[Dab][Dab]T; lactam 4-C) | > 500 | ≤0.03 | ≤0.03 | ≤0.03 | ≤0.03 | 0.03 (≈ 0.0255 µM) | 0.125 (≈ 0.106 µM) | ≤0.03 | ≤0.03
CC(C)CCCCC(=O)N[C@@H](CCN)C(=O)N[C@H](C(=O)N[C@H](CCCN)C(=O)N[C@H]1CCNC(=O)[C@H]([C@@H](C)O)NC(=O)[C@H](CCN)NC(=O)[C@H](CCN)NC(=O)[C@H]([C@@H](C)O)NC(=O)[C@@H](Cc2ccccc2)NC(=O)[C@H](CCN)NC1=O)[C@@H](C)O [Compound 22, 6-methylheptanoyl-Dab-Thr-D-Orn-ring(4-10)[Dab-Dab-D-Phe-Thr-Dab-Dab-Thr]] ({Heptanoyl(6-Me)}-[Dab]T[dOrn][Dab][Dab][dF]T[Dab][Dab]T; lactam 4-C) | > 500 | 0.06 (≈ 0.0504 µM) | ≤0.03 | 0.125 (≈ 0.105 µM) | ≤0.03 | 0.25 (≈ 0.21 µM) | 1 (≈ 0.839 µM) | 0.06 (≈ 0.0504 µM) | 0.125 (≈ 0.105 µM)
CCCCCCC(=O)N[C@@H](CCN)C(=O)N[C@H](C(=O)N[C@H](CO)C(=O)N[C@H]1CCNC(=O)[C@H]([C@@H](C)O)NC(=O)[C@H](CCN)NC(=O)[C@H](CCN)NC(=O)[C@H]([C@@H](C)O)NC(=O)[C@@H](Cc2ccccc2)NC(=O)[C@H](CN)NC1=O)[C@@H](C)O [Compound 64, Heptanoyl-Dab-Thr-D-Ser-ring(4-10)[Dab-Dap-D-Phe-Thr-Dab-Dab-Thr]] (Heptanoyl-[Dab]T[dS][Dab][Dap][dF]T[Dab][Dab]T; lactam 4-C) | > 500 | 0.25 (≈ 0.22 µM) | 0.25 (≈ 0.22 µM) | 0.5 (≈ 0.44 µM) | 0.25 (≈ 0.22 µM) | 64 (≈ 56.3 µM) | 8 (≈ 7.04 µM) | 0.25 (≈ 0.22 µM) | 0.25 (≈ 0.22 µM)
CC(C)CCCCC(=O)N[C@@H](CCN)C(=O)N[C@H](C(=O)N[C@@H](CN)C(=O)N[C@H]1CCNC(=O)[C@H]([C@@H](C)O)NC(=O)[C@H](CCN)NC(=O)[C@H](CCNCS(=O)(=O)O)NC(=O)[C@H]([C@@H](C)O)NC(=O)[C@@H](Cc2ccccc2)NC(=O)[C@H](CCN)NC1=O)[C@@H](C)O [Compound 119, 6-methylheptanoyl-Dab-Thr-Dap-ring(4-10)[Dab-Dab-D-Phe-Thr-Dab(CH2SO3H)-Dab-Thr]] ({Heptanoyl(6-Me)}-[Dab]T[Dap][Dab][Dab][dF]T[Dab(CH2SO3H)][Dab]T; lactam 4-C) | > 500 | 0.06 (≈ 0.0477 µM) | 0.06 (≈ 0.0477 µM) | 0.125 (≈ 0.0994 µM) | 0.06 (≈ 0.0477 µM) | 0.25 (≈ 0.199 µM) | 0.5 (≈ 0.398 µM) | 0.125 (≈ 0.0994 µM) | 0.25 (≈ 0.199 µM)
